Values of other authors, collected in article PMC12843750, “Integrated Biomimetic 2D-LC and Permeapad® Assay for Profiling the Transdermal Diffusion of Pharmaceutical Compounds” (Molecules, 2026).

Settings: ref Drugbank

- pKa: 9.46
Compound: CC(=O)Nc1ccc(O)cc1 [Paracetamol]
